In PubChem BioAssay AID463074 (Broad Institute, 2010) one finds AC50 data, which are given here for 91 compounds.

Active and inactive are the calls of the source.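 How the source made its calls: active means AC50 no more than tenfold above the top dose tested, or full inhibition at every dose with a flat fit (cut at about 19 µM in these data); inconclusive means flat curve fit with inhibition between 30% and 70%, or poor fit; inactive means AC50 more than tenfold above the top dose tested.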 Where only a bound is given, the exact number is not on record here.

The test system of the assay is HMLE_sh_eGFP viability, CellTiter-Glo luminescence, 72 h. Put plainly: cytotoxicity in HMLE control line with eGFP shRNA, dose response, counter-screen for HMLE_sh_ECad selective toxicity project, cell-based, HMLE_sh_eGFP, luminescence (AID 463074).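 Further: counterscreen control line to flag general toxicity for the HMLE_sh_ECad screen; potency for loss of viability as luminescence drops below DMSO wells.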
`CC1=C(CO)C(=O)OC([C@@H](C)C2CC[C@H]3C4C[C@H]5O[C@]56[C@@H](O)C=CC(=O)[C@]6(C)C4CC[C@]23C)C1` (stereo partly specified): the AC50 was 1.62 µM. The figure for `COc1ccc(-c2sc3ccccc3c2C#Cc2cncn2C)cc1` is 4.83 µM; for `CN(C)c1ccc(/C=N/NC(=O)C(=O)/C=C2\NC3(CCCC3)Cc3ccccc32)cc1` it is 6.5 µM; for `OCCCNc1nc(-c2ccccc2)c2cc(Br)ccc2n1` it is > 19.5 µM (inactive).

For `O=C(CSc1ncnc2nc[nH]c12)Nc1nnc(SCc2ccc(Cl)c(Cl)c2)s1`, the AC50 is 7.45 µM. As for `CCCCCc1cc(=O)oc2c(C(CCN3CCCC(C)C3)c3ccc(OC)cc3)c(OC)cc(OC)c12` (stereo unspecified), the AC50 was 5.33 µM. The figure for `CC(=O)c1c(C)oc2c1C(=O)c1ccccc1C2=O` is 4.4 µM. Under `Cc1ccc(CSc2nc3sc(C)c(C)c3c(=O)n2Cc2ccco2)cc1` stands > 19.5 µM (inactive); under `CN1CCN(c2ccccc2NC(=O)c2ccc(-c3ccc(Cl)cc3Cl)o2)CC1`, 6.57 µM. Under `COc1ccc(Br)cc1C(=O)NC(=S)Nc1cc(-c2nc3ccccc3[nH]2)ccc1C` stands > 19.5 µM (inactive); under `Cc1ccc(-c2csc3ncnc(-n4cnc5ccccc54)c23)cc1`, 4.28 µM; under `Cc1cc(C)cc(NS(=O)(=O)c2ccc3[nH]cc(C(=O)NCc4ccco4)c(=O)c3c2)c1`, 1.5 µM.

Take `O=C(NC(=O)N1CCN(c2cccc(Cl)c2)CC1)c1ccc(Cl)cc1`: the AC50 is 0.573 µM. Turning to `O=C(Nc1ccc(Cl)c(Cl)c1)Nc1ccccc1NS(=O)(=O)c1cccs1`, the AC50 was 13.6 µM.

Take `Cc1cccc(-c2oc3ccccc3c2C#CCCCCO)c1`: the AC50 is 7.62 µM. For `CCn1c(=O)c([N+](=O)[O-])c(Cl)c2ccccc21`, the AC50 was 3.56 µM. For the compound `COc1ccc(/C=C/c2nc3cc(-c4ccccc4)ccc3o2)cc1O`, the AC50 is 9.18 µM. Consider `CC(C)N1C(=O)/C(=C\c2nc3ccccc3c(=O)n2-c2ccccc2)c2ccccc21`, for which the AC50 is 9.85 µM. The figure for `Cc1nc(Nc2nc(CSc3nc4ccccc4[nH]3)cc(=O)[nH]2)nc2ccccc12` is 2.69 µM. As to `CCOC(=O)/C=C/C(=O)Nc1cccc([N+](=O)[O-])c1`, the AC50 is 8.97 µM. `Oc1ccc(Br)cc1-c1cc(-c2ccccc2)n[nH]1`: the AC50 is 6.31 µM. With `COc1ccc([N+](=O)[O-])cc1Nc1c2ccccc2nc2ccccc12`, the AC50 is 1.43 µM. The figure for `COc1ccc(-c2csc3nc(-c4ccccc4F)oc(=O)c23)cc1OC` is 3.86 µM; for `CCCCCCc1cc2cc(S(=O)(=O)c3ccc(Cl)cc3)c(=O)oc2cc1O` it is 9.25 µM. For `Cc1cc(C)cc(NC(=O)CCc2nc3sc4c(c3c(=O)[nH]2)CCCC4)c1`, the AC50 was 5.26 µM. Turning to `C[C@]12CC[C@H](O)C[C@H]1CC[C@@H]1[C@@H]2C[C@@H](O)[C@]2(C)[C@@H](C3=CC(=O)OC3)CC[C@]12O`, the concentration at half-maximal activity (AC50) is 0.654 µM. In the case of `Cc1ccc(Cl)cc1NC(=O)c1ccccc1OCC(=O)Nc1ccc(Cl)cc1`, the AC50 was 11.5 µM. On to `O=C(N/N=C(\Cc1ncc[nH]1)c1ccccc1)c1ccncc1`, for which the AC50 is 3.85 µM.

Regarding `CC(C)(C)OC(=O)[C@H](Cc1ccccc1)NC(=O)c1[nH]cnc1C(=O)Nc1cccc(Cl)c1`, the AC50 is 3.93 µM.

Turning to `CN1CCN(CCCNC(=O)c2ccc(/C=C3\Oc4ccccc4N(Cc4ccc(Cl)cc4)C3=O)cc2)CC1`, the AC50 is 3.31 µM. As for `COc1ccc(C)cc1NC(=O)c1ccccc1NS(=O)(=O)c1ccc(Cl)s1`, the AC50 is 7.89 µM.

On to `COc1ccc(-c2oc3ccc(N4CCOCC4)cc3c2C#CCO)cc1`, for which the AC50 was 10.4 µM. As to `Cc1cc(C2(c3ccc(O)c(C)c3)C(=O)Nc3ccccc32)ccc1O`, the AC50 was 7.1 µM. As to `Cc1oc(CC(C)C)cc1C(=O)Nc1cccc2ccccc12`, the AC50 is 5.98 µM.

`C=Cn1ccnc1P(=S)(c1ccc2c(c1)c1ccccc1n2CC)c1nccn1C=C`: the AC50 is 2.18 µM. As for `CNC(=O)C1C(=S)NC(N)=C(C#N)C1c1ccccc1` (stereo unspecified), the AC50 is > 19.5 µM (inactive). For `CCOc1ccc(S(=O)(=O)N2CCN=C2c2ccccc2)cc1`, the AC50 was 3.1 µM. As for `Cc1cc(SCC(=O)c2cccs2)n2nc(C)c(-c3ccc(Cl)cc3)c2n1`, the AC50 is 15.5 µM. The figure for `N/C(=N\N=C/c1ccc(Br)cc1)N/N=C\c1ccc(Br)cc1` is 3.83 µM; for `O=S(=O)(c1ccc(Cl)cc1)N1CCC(n2cnc3cc(C(F)(F)F)ccc32)CC1` it is 4 µM. Under `CCn1c(=O)c(C(=O)NCCc2ccccc2)c(O)c2ccccc21` stands 5.62 µM; under `CCCCCCOc1ccc(/C(C)=N/NC2=NCCN2)cc1`, 3.69 µM. Turning to `COc1ccc2nc(N=Nc3ccc(O)c4ccccc34)sc2c1`, the AC50 was 3.27 µM. `O=C1C2C(c3ccccc3)CC=CC2[C@H](c2ccc(C(F)(F)F)cc2)N1Cc1ccccc1` (stereo partly specified): the AC50 is 5.89 µM. For the compound `Oc1ccc(Nc2nc(-c3ccc4ccccc4c3)cs2)cc1`, the AC50 is 7.1 µM. With `Cn1c(-c2ccccc2)cnc1NCc1ccc(-c2ccccc2)cc1`, the concentration at half-maximal activity (AC50) is 0.683 µM. The figure for `Cc1ccc(NC(=S)NC(NC(=O)Cc2cccc3ccccc23)C(Cl)(Cl)Cl)cc1` (stereo unspecified) is 3.41 µM. The figure for `CC(Nc1nc(-c2ccc(Cl)cc2)cs1)c1nc2cc(Cl)c(N3CCCCC3)cc2n1CCOCCO` (stereo unspecified) is 1.97 µM; for `Clc1ccc(-c2nnnn2-c2ccc(Cl)c(Cl)c2)cc1Cl` it is 15.2 µM; for `N#Cc1c(-c2ccccc2)nc(SCc2cccc(Cl)c2)[nH]c1=O` it is 7.69 µM. Under `O=c1[nH]c(=O)n(C2C[C@H](O)[C@@H](CO)O2)cc1C(F)(F)F` (stereo partly specified) stands 0.946 µM.

As to `O=C(Nc1ccc(Br)c(C(F)(F)F)c1)c1ccc(C(F)(F)F)cc1`, the AC50 was 3.03 µM. The figure for `CN(C)C(=O)/C(C#N)=C\c1cc(Br)c(Sc2ccc(Cl)cc2)o1` is 4.46 µM; for `CCCCc1ccc(NC(=O)CSc2nc(=O)n(CCN(CC)CC)c3c2CCC3)cc1` it is 9.97 µM; for `Cc1cccc(-n2cc(CN(C)Cc3nccn3C)c(-c3cccc(F)c3)n2)c1` it is 15.5 µM. On to `CC(C)(c1ccccc1)c1ccc(OCCN2CCCC2)cc1`, for which the AC50 was 0.903 µM. Turning to `CC1CCCN(c2ccc(C(=O)N3CCC4(CC3)OCCO4)cc2[N+](=O)[O-])C1` (stereo unspecified), the AC50 is 7.96 µM.

For `Fc1cccc(-c2cc3nc4c(c(NCc5ccco5)n3n2)CCCC4)c1`, the AC50 was 7.77 µM. For `C=C1[C@@H](O)[C@@H]2O[C@]3(CC[C@H](/C=C/[C@@H](C)[C@@H]4CC(C)=CC5(O[C@H](C[C@@](C)(O)C(=O)OC)CC[C@H]5O)O4)O3)CC[C@H]2O[C@@H]1[C@@H](O)C[C@H](C)[C@H]1OC2(CCCCO2)CC[C@H]1C` (stereo partly specified), the AC50 was less than 0.16 µM. Turning to `O=C(CCC(=O)N1CCN(c2ccc(O)cc2)CC1)c1ccc(Br)cc1`, the AC50 is 2.64 µM. As for `COC(=O)c1c(NC(=O)c2ccc(C)c(S(=O)(=O)Nc3ccccc3C)c2)sc2c1CCCC2`, the AC50 is 1.31 µM. Under `CCc1nc(N2CCN(Cc3ccc4c(c3)OCO4)CC2)c2oc3ccccc3c2n1` stands 3.85 µM.

For the compound `C[C@H]1CCC/C=C/[C@@H]2C[C@H](O)C[C@H]2[C@H](O)/C=C/C(=O)O1`, the AC50 was less than 0.16 µM. The figure for `N#CCc1ccc(NC(=O)Nc2cccc(Cl)c2)cc1` is 20 µM. As to `COc1ccc(/C=C/C(=O)c2ccc([N+](=O)[O-])o2)cc1`, the AC50 is 2.87 µM. Turning to `O=c1/c(=C\c2cccc(O)c2)sc2nc(-c3ccccc3)c(-c3ccccc3)n12`, the AC50 is 6.21 µM.

Turning to `COc1ccc(/C=N/N(Cc2ccccc2)c2ccccc2)cc1O`, the AC50 was 6.77 µM. Take `COc1cccc(NP(=O)(Oc2ccc(Cl)cc2)Oc2ccc(Cl)cc2)c1`: the AC50 was 5.83 µM. As to `O=C(N/N=C/c1ccc(Cl)c([N+](=O)[O-])c1)c1cc(-c2ccccc2)nc2ccccc12`, the AC50 was 4.52 µM. Regarding `CC(C)=CCc1c(O)ccc(C(=O)Cc2ccccc2)c1O`, the AC50 is 4.41 µM. For `Nc1ccc(N2CCN(Cc3ccccc3Cl)CC2)c(Cl)c1`, the AC50 was 5.59 µM. Regarding `Clc1ccc(CSc2nnnn2-c2ccc3c(c2)OCO3)c(Cl)c1`, the AC50 was 10.6 µM. Turning to `CCOC(=O)CSC1=C(C#N)C(c2sccc2C)CC(=O)N1` (stereo unspecified), the AC50 was > 19.5 µM (inactive). `Cc1ccc(S(=O)(=O)Nc2ccccc2-c2ccccc2NS(=O)(=O)c2ccc(C)cc2)cc1`: the AC50 is 6.98 µM. On to `CC(/C=N/NC(=O)c1cc(-c2ccc(C)s2)[nH]n1)=C\c1ccccc1`, for which the AC50 was 4.35 µM. As to `CC1=C(C(=O)OC2CCCCCCC2)C(c2cc3c(cc2Br)OCO3)CC(=O)N1` (stereo unspecified), the AC50 was 2.57 µM.

As to `CC1CCCN(CCCNC(=O)c2cc3c(Cl)nc4ccccc4c3s2)C1` (stereo unspecified), the AC50 is 8.14 µM.

Consider `CCCC(=O)NC(c1ccc2c(c1)OCO2)c1cc(Cl)c2cccnc2c1O` (stereo unspecified), for which the AC50 was 3.1 µM.

On to `CCOC(=O)C(=Cc1ccc(OCc2ccc([N+](=O)[O-])cc2)c(OC)c1)C(=O)OCC`, for which the AC50 is 3.03 µM.

As to `O=C(N/N=C/c1cc([N+](=O)[O-])ccc1O)c1c[nH]c2ccccc12`, the AC50 was 16.5 µM. For the compound `Cc1cc(C)nc(NC(=NCCc2c[nH]c3ccccc23)NC(=O)Nc2ccc(Cl)cc2)n1`, the AC50 was > 19.5 µM (inactive). With `CCN(CC)c1ccc(C(=O)OCc2cc(=O)oc3cc(O)ccc23)cc1`, the concentration at half-maximal activity (AC50) was 16.2 µM.

For `COc1ccc(-c2noc3c2-c2nc(-c4ccccc4C)sc2CC3)cc1`, the AC50 is 1.03 µM. In the case of `Cc1ccc(OC/C(O)=C(\C#N)c2nc3ccccc3s2)cc1`, the AC50 is 6.81 µM. Take `C#CCOCCOCCOCCNc1nc(N2CCN(C(=O)CCCCCCCCCCNC(=O)Cn3cc(C[C@@H](C)O)nn3)CC2)nc(N2CCN(C(=O)CCCCCCCCCCNC(=O)[C@H](CCCCN)n3cc(C[C@@H](C)CC)nn3)CC2)n1`: the AC50 was 6.8 µM. For the compound `CCn1c(C)c(C)c2cc(C(=O)Nc3cccc(Cl)c3)ccc21`, the AC50 is 4.05 µM. With `COc1cccc(O)c1CN1CCC(C(=O)Nc2ccc(-c3cccc(C)c3)cc2)CC1`, the AC50 is 4.06 µM. Under `CCN1CCN(CCCOc2ccc(-c3ccccc3)cc2)CC1` stands 5.67 µM; under `Oc1ccccc1N1CCN(c2ncnc3sc(-c4ccccc4)cc23)CC1`, 3.53 µM. For `O=C(N/N=C/c1ccc(OC2CSC2)cc1)c1ccccc1`, the AC50 was 2.85 µM.

For the compound `O=[N+]([O-])c1ccc(O)c(-c2nc(-c3ccccc3)c(-c3cccs3)[nH]2)c1`, the AC50 is 1.69 µM.
